Laboratory results as given in US12419871B2, “Biomolecules involved in Alzheimer's disease” (ELECTROPHORETICS LIMITED, priority 2015, dated 2025).
“And” between values parts separate entries of the source, which are not always exact repeats. Identical values can stand only once. “Also recorded” adds a separate entry of the source.

System: TMHT (Thy-1 Mutated Human Tau) mice
Experiment: SysQuant analysis of protein and phosphorylation changes in brains of TMHT mice treated with CK1d inhibitors
Format: in vivo, mouse
Conditions: for Mouse brain Log 2 Ck1 inhibitor: 2′,3′-cyclic-nucleotide 3′-phosphodiesterase / Mouse brain Log 2 Ck1 inhibitor: phosphatase 1 regulatory subunit 14A / effect of treatment on protein phosphatase 1 regulatory subunit 14A level in mouse brain (in words) / effect of treatment on 2′,3′-cyclic-nucleotide 3′-phosphodiesterase level in mouse brain (in words): 30 mg/kg; for effect of treatment on protein phosphatase 1 regulatory subunit 14A level in mouse brain (in words) / effect of treatment on 2′,3′-cyclic-nucleotide 3′-phosphodiesterase level in mouse brain (in words): TMHT model, treated orally 30 mg/kg; for effect of treatment on protein phosphatase 1 regulatory subunit 14A level in mouse brain (in words): versus vehicle alone (FIG. 5B); for effect of treatment on 2′,3′-cyclic-nucleotide 3′-phosphodiesterase level in mouse brain (in words): versus vehicle alone (FIG. 6B); for number of human tau peptides significantly (p<0.05) regulated in the hippocampi of treated mice: of 124 unique quantified peptides from human tau, 30 mg/kg orally
Method: Starting at 8.5 months (±2 weeks) of age, TMHT mice received CK1d inhibitors 2-Methyl-amino-3-[(4-fluorophenyl)carbonyl]indolizine-1-carboxamide (PS278-05), 5-(1,3-benzoxazol-2-yl)-4-(pyridine-4-yl)pyrimidin-2-amine (PS110), compound PF4800567 (3-[(3-Chlorophenoxy)methyl]-1-(tetrahydro-2H-pyran-4-yl)-1H-pyrazolo[3,4-d]pyrimidin-4-amine; Tocris®) or vehicle (0.5% w/v methylcellulose) for 8 weeks (54 applications) at a dosage of 30 mg/kg body weight, orally via gavage.
In total 48 animals were used and allocated to 4 treatment groups.
Brain samples were collected within 10 minutes of euthanasia, washed in ice cold saline, transferred to a clean Eppendorf tube and immediately frozen in liquid nitrogen.
One hippocampus sample (left or right) from each of three animals in each of the vehicle, PS110 and PS278-05 groups were selected for analysis by SysQuant. A pool of all nine samples was also prepared as a reference channel. All TMT® labelling, mixing and mass spectrometry and bioinformatics studies were performed essentially as described in Section 4.1. For peptide and protein identification the UniProtKB mouse database was used, supplemented by inclusion of all human tau isoform entries.
All protein identification, peptide sequence, phosphorylation site information along with quantitative values and biological information relating to the peptide, protein and phosphorylation sites were assembled in a Microsoft Excel file (QuantSheet) to allow structured data analysis based on fold-change, significance, biological function and cellular localisation.
Similarly, the expression levels of total tau and for each phosphorylated serine, threonine and tyrosine amino acid in mouse brains following treatment with vehicle control or the CK1d inhibitors PS278-05 and PS110 were calculated.
All peptides that matched the human MAPT (P10636; SEQ ID NO:29) UniProt sequence and/or the mouse MAPT (P10637) were exported into a separate Microsoft Excel sheet. Ion intensity values for each phosphopeptide were summed and the average calculated for each treatment group (Vehicle control, PS110, PS278-05).

[1] = TMHT mice, hippocampus, 30 mg/kg orally via gavage, 8 weeks

SMILES	Mouse brain Log 2 Ck1 inhibitor: BH3-interacting domain death agonist [1]	Mouse brain Log 2 Ck1 inhibitor: Catenin delta-1 [1]	Mouse brain Log 2 Ck1 inhibitor: Clathrin light chain B [1]	Mouse brain Log 2 Ck1 inhibitor: Guanine nucleotide-binding protein G(q) subunit alpha [1]	Mouse brain Log 2 Ck1 inhibitor: Myelin-associated oligodendrocyte basic protein [1]	Mouse brain Log 2 Ck1 inhibitor: Neutral alpha-glucosidase AB [1]	Mouse brain Log 2 Ck1 inhibitor: Secernin-2 [1]	Mouse brain Log 2 Ck1 inhibitor: Short-chain specific acyl-CoA dehydrogenase, mitochondrial [1]	Mouse brain Log 2 Ck1 inhibitor: Syntaphilin [1]	Mouse brain Log 2 Ck1 inhibitor: Transmembrane protein 119 [1]	Mouse brain Log 2 Ck1 inhibitor: 2′,3′-cyclic-nucleotide 3′-phosphodiesterase [1]	Mouse brain Log 2 Ck1 inhibitor: phosphatase 1 regulatory subunit 14A [1]	effect of treatment on protein phosphatase 1 regulatory subunit 14A level in mouse brain (in words)	effect of treatment on 2′,3′-cyclic-nucleotide 3′-phosphodiesterase level in mouse brain (in words)	number of human tau peptides significantly (p<0.05) regulated in the hippocampi of treated mice (TMHT mice, 8 weeks)	further results
Nc1ncc(-c2nc3ccccc3o2)c(-c2ccncc2)n1 [PS110, 5-(1,3-benzoxazol-2-yl)-4-(pyridin-4-yl)pyrimidin-2-amine]	−0.53	−2.26	0.70	0.82	0.84	0.52	−0.76	0.54	−0.71	−0.66	0.63 and 0.57	0.71 and 0.69	altering the concentration or amount; also recorded: upregulated	altering the concentration or amount; also recorded: upregulated	37	Mouse brain Log 2 Ck1 inhibitor: Actin, alpha cardiac muscle 1 [1]: 0.58; Mouse brain Log 2 Ck1 inhibitor: Antithrombin-III [1]: 0.57; Mouse brain Log 2 Ck1 inhibitor: Fibrinogen gamma chain [1]: 1.01; Mouse brain Log 2 Ck1 inhibitor: GMP reductase 1 [1]: 0.68; Mouse brain Log 2 Ck1 inhibitor: Insulin-like growth factor-binding protein [1]: −0.53; Mouse brain Log 2 Ck1 inhibitor: KxDL motif-containing protein 1 [1]: −0.58; Mouse brain Log 2 Ck1 inhibitor: Nuclear pore complex protein Nup155 [1]: −0.53; Mouse brain Log 2 Ck1 inhibitor: Protein KIAA1045 [1]: −0.63; Mouse brain Log 2 Ck1 inhibitor: Serum albumin [1]: 0.69; Mouse brain Log 2 Ck1 inhibitor: cAMP-dependent protein kinase type 1 [1]: 0.53; effect of treatment on protein phosphatase 1 regulatory subunit 14A level in mouse brain (in words) (listed as 5-(1,3-benzoxazol-2-yl)-4-(pyridine-4-yl)pyrimidin-2-amine): up-regulation
CNc1c(C(N)=O)c2ccccn2c1C(=O)c1ccc(F)cc1 [PS278-05, 2-Methyl-amino-3-[(4-fluorophenyl)carbonyl]indolizine-1-carboxamide]													up-regulation; also recorded: altering the concentration or amount; also recorded: upregulated	altering the concentration or amount; also recorded: upregulated	22	
NC(=O)c1c(N)c(C(=O)c2ccc(F)cc2)n2ccccc12 [PS278, 2-amino-3-[(4-fluorophenyl)carbonyl]indolizine-1-carboxamide]	−0.56	−1.07	0.50	0.62	0.66	−0.78	−0.52	0.57	−0.76	−0.52	0.62 and 0.63	0.49 and 0.71				Mouse brain Log 2 Ck1 inhibitor: Centrosomal protein of 170 kDa [1]: −0.51; Mouse brain Log 2 Ck1 inhibitor: Egl nine homolog 1 [1]: -0.73; Mouse brain Log 2 Ck1 inhibitor: Lambda-crystallin homolog [1]: 0.56; Mouse brain Log 2 Ck1 inhibitor: OCIA domain-containing protein 1 [1]: −0.59; Mouse brain Log 2 Ck1 inhibitor: Synaptoporin [1]: 0.72; Mouse brain Log 2 Ck1 inhibitor: Tubulin alpha chain-like 3 [1]: 0.67
